Laboratory results as given in PubChem BioAssay AID272 (DTP/NCI, 2004).
“And” between values parts separate entries of the source, which are not always exact repeats. Equal values may be shown once. Inconclusive results are not listed. Starred links: 1 amine or outer side, 2 acyl side, 3 side chain; linkers in the order of their positions; H or OH if unused. Positions of bridges follow the written chain, without caps; N, C: chain ends. Non-standard residues stand in square brackets, D forms with d. Residues, ends and D or L forms follow the SMILES beside them. Chains are numbered I, II in the order given. Actinocin(9to1) = Cc1c2oc3c(C)ccc(C(=O)[*:1])c3nc-2c(C(=O)[*:2])c(N)c1=O; aThr = C[C@H](O)[C@H](N)C(=O)O; NMeV = CN[C@H](C(=O)O)C(C)C; Sar = CNCC(=O)O

System: Lewis lung carcinoma i.m., BDF1 mice, T/C %
Assay: NCI In Vivo Anticancer Drug Screen. Data for tumor model Lewis Lung Carcinoma (intramuscular) in B6D2F1 (BDF1) mice
Details: schedule: Q01DX011 (ip)
Procedure, shortened: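 Tumour-bearing mice were dosed with compound, and either their survival or their tumour size was measured. Results were expressed relative to vehicle-treated controls as T/C.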

[1] = endpoint: median survival time, dose: 0.5 mg/kg/injection, vehicle: saline, higher = longer survival
[2] = endpoint: median survival time, dose: 1.0 mg/kg/injection, vehicle: saline, higher = longer survival
[3] = endpoint: median survival time, dose: 2.0 mg/kg/injection, vehicle: saline, higher = longer survival

## CC1(C)N=C(N)N=C(N)N1c1ccc(CCCCc2ccc(Cl)cc2Cl)cc1
endpoint: mean tumor weight, dose: 1.25 mg/kg/injection, vehicle: saline, higher = larger tumour
  T/C: 65 % of control
endpoint: mean tumor weight, dose: 2.5 mg/kg/injection, vehicle: saline, higher = larger tumour
  T/C: 71 % of control
endpoint: mean tumor weight, dose: 5.0 mg/kg/injection, vehicle: saline, higher = larger tumour
  T/C: 31 % of control
endpoint: mean tumor weight, dose: 10.0 mg/kg/injection, vehicle: saline, higher = larger tumour
  T/C: 65 % of control
endpoint: median survival time, dose: 1.25 mg/kg/injection, vehicle: saline, higher = longer survival
  T/C: 110 % of control
endpoint: median survival time, dose: 2.5 mg/kg/injection, vehicle: saline, higher = longer survival
  T/C: 93 % of control
endpoint: median survival time, dose: 5.0 mg/kg/injection, vehicle: saline, higher = longer survival
  T/C: 104 % of control
endpoint: median survival time, dose: 10.0 mg/kg/injection, vehicle: saline, higher = longer survival
  T/C: 91 % of control

## COc1cc([C@@H]2c3cc4c(cc3[C@@H](OC3OC5COC(C)OC5C(O)C3O)[C@H]3COC(=O)[C@H]23)OCO4)cc(OC)c1O (stereo partly specified)
endpoint: mean tumor weight (est.), dose: 0.25 mg/kg/injection, vehicle: saline, higher = larger tumour
  T/C: 72 % of control
endpoint: mean tumor weight (est.), dose: 0.5 mg/kg/injection, vehicle: saline, higher = larger tumour
  T/C: 67 % of control
endpoint: mean tumor weight (est.), dose: 1.0 mg/kg/injection, vehicle: saline, higher = larger tumour
  T/C: 79 % of control
endpoint: mean tumor weight (est.), dose: 2.0 mg/kg/injection, vehicle: saline, higher = larger tumour
  T/C: 74 % of control
endpoint: mean tumor weight (est.), dose: 4.0 mg/kg/injection, vehicle: saline, higher = larger tumour
  T/C: 43 % of control
endpoint: mean tumor weight (est.), dose: 5.0 mg/kg/injection, vehicle: saline, higher = larger tumour
  T/C: 105 % of control
endpoint: median survival time, dose: 0.25 mg/kg/injection, vehicle: saline, higher = longer survival
  T/C: 96 % of control
[1]
  T/C: 98 % of control
[2]
  T/C: 96 % of control
[3]
  T/C: 107 % of control
endpoint: median survival time, dose: 4.0 mg/kg/injection, vehicle: saline, higher = longer survival
  T/C: 101 % of control

## CCCCOc1ccc(NC(N)=Nc2ccc(Cl)cc2)cc1
endpoint: mean tumor weight (est.), dose: 3.12 mg/kg/injection, vehicle: saline with Tween-80, higher = larger tumour
  T/C: 118 % of control
endpoint: mean tumor weight (est.), dose: 6.25 mg/kg/injection, vehicle: saline with Tween-80, higher = larger tumour
  T/C: 101 % of control
endpoint: mean tumor weight (est.), dose: 12.5 mg/kg/injection, vehicle: saline with Tween-80, higher = larger tumour
  T/C: 67 % of control
endpoint: mean tumor weight (est.), dose: 25.0 mg/kg/injection, vehicle: saline with Tween-80, higher = larger tumour
  T/C: 58 % of control
endpoint: median survival time, dose: 3.12 mg/kg/injection, vehicle: saline with Tween-80, higher = longer survival
  T/C: 97 % of control
endpoint: median survival time, dose: 6.25 mg/kg/injection, vehicle: saline with Tween-80, higher = longer survival
  T/C: 123 % of control
endpoint: median survival time, dose: 12.5 mg/kg/injection, vehicle: saline with Tween-80, higher = longer survival
  T/C: 102 % of control
endpoint: median survival time, dose: 25.0 mg/kg/injection, vehicle: saline with Tween-80, higher = longer survival
  T/C: 104 % of control

## Cn1c(Cl)nc2c(Cl)nc(Cl)nc21
endpoint: median survival time, dose: 1.0 mg/kg/injection, vehicle: saline with Tween-80, higher = longer survival
  T/C: 102 % of control
endpoint: median survival time, dose: 2.0 mg/kg/injection, vehicle: saline with Tween-80, higher = longer survival
  T/C: 106 % of control
endpoint: median survival time, dose: 4.0 mg/kg/injection, vehicle: saline with Tween-80, higher = longer survival
  T/C: 102 % of control
endpoint: median survival time, dose: 8.0 mg/kg/injection, vehicle: saline with Tween-80, higher = longer survival
  T/C: 104 % of control
endpoint: median survival time, dose: 16.0 mg/kg/injection, vehicle: saline with Tween-80, higher = longer survival
  T/C: 110 % of control

## O=C(O)c1[nH]c(=O)[nH]c(=O)c1F
endpoint: median survival time, dose: 0.19 mg/kg/injection, vehicle: sodium bicarbonate, higher = longer survival
  T/C: 100 % of control
endpoint: median survival time, dose: 0.38 mg/kg/injection, vehicle: sodium bicarbonate, higher = longer survival
  T/C: 111 % of control
endpoint: median survival time, dose: 0.75 mg/kg/injection, vehicle: sodium bicarbonate, higher = longer survival
  T/C: 92 % of control
endpoint: median survival time, dose: 1.5 mg/kg/injection, vehicle: sodium bicarbonate, higher = longer survival
  T/C: 100 % of control
endpoint: median survival time, dose: 2.5 mg/kg/injection, vehicle: other, higher = longer survival
  T/C: 105 % of control
endpoint: median survival time, dose: 3.12 mg/kg/injection, vehicle: sodium bicarbonate, higher = longer survival
  T/C: 101 % of control
endpoint: median tumor weight (est.), dose: 0.19 mg/kg/injection, vehicle: sodium bicarbonate, higher = larger tumour
  T/C: 96 % of control
endpoint: median tumor weight (est.), dose: 0.38 mg/kg/injection, vehicle: sodium bicarbonate, higher = larger tumour
  T/C: 85 % of control
endpoint: median tumor weight (est.), dose: 0.75 mg/kg/injection, vehicle: sodium bicarbonate, higher = larger tumour
  T/C: 101 % of control
endpoint: median tumor weight (est.), dose: 1.5 mg/kg/injection, vehicle: sodium bicarbonate, higher = larger tumour
  T/C: 108 % of control
endpoint: median tumor weight (est.), dose: 3.12 mg/kg/injection, vehicle: sodium bicarbonate, higher = larger tumour
  T/C: 81 % of control

## Nc1nc2c(c(=O)[nH]1)NC(CCNc1ccc(C(=O)NC(CCC(=O)O)C(=O)O)cc1)CN2 (stereo unspecified)
endpoint: mean tumor weight (est.), dose: 3.13 mg/kg/injection, vehicle: other, higher = larger tumour
  T/C: 112 % of control
endpoint: mean tumor weight (est.), dose: 6.25 mg/kg/injection, vehicle: other, higher = larger tumour
  T/C: 81 % of control
endpoint: mean tumor weight (est.), dose: 12.5 mg/kg/injection, vehicle: other, higher = larger tumour
  T/C: 104 % of control
endpoint: mean tumor weight (est.), dose: 25.0 mg/kg/injection, vehicle: other, higher = larger tumour
  T/C: 99 % of control
endpoint: mean tumor weight (est.), dose: 50.0 mg/kg/injection, vehicle: other, higher = larger tumour
  T/C: 68 % of control
endpoint: mean tumor weight (est.), dose: 100.0 mg/kg/injection, vehicle: other, higher = larger tumour
  T/C: 63 % of control
endpoint: mean tumor weight, dose: 6.25 mg/kg/injection, vehicle: other, higher = larger tumour
  T/C: 100 % of control
endpoint: mean tumor weight, dose: 25.0 mg/kg/injection, vehicle: other, higher = larger tumour
  T/C: 101 % of control
endpoint: mean tumor weight, dose: 50.0 mg/kg/injection, vehicle: other, higher = larger tumour
  T/C: 78 % of control
endpoint: mean tumor weight, dose: 100.0 mg/kg/injection, vehicle: other, higher = larger tumour
  T/C: 68 % of control
endpoint: median survival time, dose: 6.25 mg/kg/injection, vehicle: other, higher = longer survival
  T/C: 94 % of control
endpoint: median survival time, dose: 12.5 mg/kg/injection, vehicle: other, higher = longer survival
  T/C: 103 % of control
endpoint: median survival time, dose: 25.0 mg/kg/injection, vehicle: other, higher = longer survival
  T/C: 98 % of control
endpoint: median survival time, dose: 100.0 mg/kg/injection, vehicle: other, higher = longer survival
  T/C: 108 % of control

## Nc1nncs1
endpoint: mean tumor weight, dose: 6.25 mg/kg/injection, vehicle: water, higher = larger tumour
  T/C: 87 % of control
endpoint: mean tumor weight, dose: 12.5 mg/kg/injection, vehicle: water, higher = larger tumour
  T/C: 80 % of control
endpoint: mean tumor weight, dose: 25.0 mg/kg/injection, vehicle: water, higher = larger tumour
  T/C: 74 % of control
endpoint: mean tumor weight, dose: 50.0 mg/kg/injection, vehicle: water, higher = larger tumour
  T/C: 36 % of control
endpoint: median survival time, dose: 6.25 mg/kg/injection, vehicle: water, higher = longer survival
  T/C: 121 % of control
endpoint: median survival time, dose: 25.0 mg/kg/injection, vehicle: water, higher = longer survival
  T/C: 123 % of control

## CC(=O)OC1C(=O)C(O)C(C)OC1O[C@@H]1C[C@@]2(C)[C@@H]3CC=C4[C@@H](C[C@H](O)C(=O)C4(C)C)[C@]3(C)C(=O)C[C@]2(C)[C@H]1[C@@](C)(O)C(=O)/C=C/C(C)(C)O (stereo partly specified)
endpoint: mean tumor weight, dose: 0.5 mg/kg/injection, vehicle: saline, higher = larger tumour
  T/C: 41 % of control
endpoint: mean tumor weight, dose: 1.0 mg/kg/injection, vehicle: saline, higher = larger tumour
  T/C: 32 % of control
endpoint: mean tumor weight, dose: 2.0 mg/kg/injection, vehicle: saline, higher = larger tumour
  T/C: 41 % of control
[1]
  T/C: 113 % of control
[2]
  T/C: 89 % of control
[3]
  T/C: 91 % of control

## Cc1c2oc3c(C)ccc(C(=O)N[C@@H]4C(=O)N[C@H](C(C)C)C(=O)N5CCC[C@H]5C(=O)N(C)CC(=O)N(C)[C@@H](C(C)C)C(=O)O[C@H]4C)c3nc-2c(C(=O)N[C@@H]2C(=O)N[C@H](C(C)C)C(=O)N3CCC[C@H]3C(=O)N(C)CC(=O)N(C)[C@@H](C(C)C)C(=O)O[C@H]2C)c(N)c1=O (I: [aThr][dV]P[Sar][NMeV] / II: [aThr][dV]P[Sar][NMeV]; ester I:1-I:C, II:1-II:C; linker I:N-II:N via Actinocin(9to1))
endpoint: median survival time, dose: 0.01 mg/kg/injection, vehicle: water, higher = longer survival
  T/C: 99 % of control and 110 % of control and 112 % of control
endpoint: median survival time, dose: 0.02 mg/kg/injection, vehicle: water, higher = longer survival
  T/C: 93 % of control and 94 % of control and 110 % of control
endpoint: median survival time, dose: 0.04 mg/kg/injection, vehicle: water, higher = longer survival
  T/C: 110 % of control
endpoint: median survival time, dose: 0.05 mg/kg/injection, vehicle: water, higher = longer survival
  T/C: 99 % of control and 100 % of control

## CN(C)C(=S)S
endpoint: mean tumor weight, dose: 125.0 mg/kg/injection, vehicle: saline, higher = larger tumour
  T/C: 58 % of control and 59 % of control
endpoint: mean tumor weight, dose: 250.0 mg/kg/injection, vehicle: saline, higher = larger tumour
  T/C: 57 % of control
endpoint: median survival time, dose: 125.0 mg/kg/injection, vehicle: saline, higher = longer survival
  T/C: 102 % of control
